Results published in patent US20230406855A1, “N-1 BRANCHED IMIDAZOQUINOLINES, CONJUGATES THEREOF, AND METHODS” (3M INNOVATIVE PROPERTIES COMPANY, priority 2020, published 2023).

How the values were obtained:
[1] = target: T1, human TLR7 (Homo sapiens, UniProt Q9NYK1); assay: TLR activation and specificity, HEK-BLUE-hTLR7 SEAP reporter cells; assay type: cell-based; details: 16-20 hours, lowest concentration giving SEAP response at least 2x vehicle control, tested 0.01-30 micromolar
T1 construct: host or cells: HEK293 (HEK-BLUE-hTLR7)
T1 sequence (Q9NYK1 27-1049): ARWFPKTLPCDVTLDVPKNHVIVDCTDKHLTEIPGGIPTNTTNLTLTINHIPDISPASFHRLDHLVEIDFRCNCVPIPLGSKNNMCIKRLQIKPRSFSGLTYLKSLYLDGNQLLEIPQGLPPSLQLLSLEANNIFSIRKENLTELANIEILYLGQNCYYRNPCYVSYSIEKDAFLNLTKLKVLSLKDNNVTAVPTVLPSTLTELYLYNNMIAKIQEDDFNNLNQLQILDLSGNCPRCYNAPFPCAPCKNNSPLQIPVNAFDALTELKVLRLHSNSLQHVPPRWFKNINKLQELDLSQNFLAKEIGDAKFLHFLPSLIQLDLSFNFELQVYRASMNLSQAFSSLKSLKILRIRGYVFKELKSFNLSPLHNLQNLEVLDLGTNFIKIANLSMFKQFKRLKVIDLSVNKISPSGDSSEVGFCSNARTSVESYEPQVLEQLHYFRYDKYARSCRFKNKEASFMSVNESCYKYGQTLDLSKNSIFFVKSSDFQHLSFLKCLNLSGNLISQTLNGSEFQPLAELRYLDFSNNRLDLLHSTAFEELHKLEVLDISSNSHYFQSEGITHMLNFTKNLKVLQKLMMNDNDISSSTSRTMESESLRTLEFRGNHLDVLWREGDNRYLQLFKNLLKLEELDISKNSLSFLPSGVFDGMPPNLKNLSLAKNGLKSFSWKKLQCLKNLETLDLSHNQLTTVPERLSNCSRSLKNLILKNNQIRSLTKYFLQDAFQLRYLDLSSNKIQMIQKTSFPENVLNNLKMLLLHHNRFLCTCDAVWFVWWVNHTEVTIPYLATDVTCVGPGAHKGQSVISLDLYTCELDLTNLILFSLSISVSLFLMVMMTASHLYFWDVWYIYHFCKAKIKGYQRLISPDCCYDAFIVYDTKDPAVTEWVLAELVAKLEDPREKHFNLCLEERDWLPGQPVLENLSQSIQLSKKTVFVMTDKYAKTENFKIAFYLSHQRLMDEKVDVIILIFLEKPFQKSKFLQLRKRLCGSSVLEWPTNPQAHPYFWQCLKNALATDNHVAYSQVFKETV
Experimental: (§1) HEK-BLUE-hTLR7 or hTLR8 reporter cells were obtained from InvivoGen, San Diego, CA. According to the manufacturer's description, these reporter cells were prepared by co-transfection of HEK293 cells with an inducible secreted embryonic alkaline phosphatase (SEAP) reporter gene and either the human TLR7 or TLR8 gene. The SEAP reporter gene was placed under the control of an IFN-β minimal promoter fused to five NF-κB and AP-1-binding sites. In the presence of a TLR ligand, activation of NF-κB and AP-1 occurs, resulting in a corresponding increase in SEAP levels. […]
(§2) For each compound, hTLR7, hTLR8, and their respective null control HEK cells were screened. […] Cell culture supernatants containing the SEAP reporter were collected after an incubation period of 16-20 hours in a cell culture incubator (37° C. and 5% CO2), and either analyzed immediately or stored at −80° C. SEAP levels were measured using the colorimetric enzyme assay (QUANTI-BLUE (InvivoGen) according to manufacturer's instructions.
(§3) Specifically, the minimum effective concentration of each compound (micromolar) was determined as the lowest concentration of the compound that produced a SEAP expression response at least 2× greater than that observed with the vehicle control wells.

[2] = target: T2, human TLR8 (Homo sapiens, UniProt Q9NR97); assay: TLR activation and specificity, HEK-BLUE-hTLR8 SEAP reporter cells; assay type: cell-based; details: 16-20 hours, lowest concentration giving SEAP response at least 2x vehicle control, tested 0.01-30 micromolar
T2 construct: host or cells: HEK293 (HEK-BLUE-hTLR8)
T2 sequence (Q9NR97 27-1041): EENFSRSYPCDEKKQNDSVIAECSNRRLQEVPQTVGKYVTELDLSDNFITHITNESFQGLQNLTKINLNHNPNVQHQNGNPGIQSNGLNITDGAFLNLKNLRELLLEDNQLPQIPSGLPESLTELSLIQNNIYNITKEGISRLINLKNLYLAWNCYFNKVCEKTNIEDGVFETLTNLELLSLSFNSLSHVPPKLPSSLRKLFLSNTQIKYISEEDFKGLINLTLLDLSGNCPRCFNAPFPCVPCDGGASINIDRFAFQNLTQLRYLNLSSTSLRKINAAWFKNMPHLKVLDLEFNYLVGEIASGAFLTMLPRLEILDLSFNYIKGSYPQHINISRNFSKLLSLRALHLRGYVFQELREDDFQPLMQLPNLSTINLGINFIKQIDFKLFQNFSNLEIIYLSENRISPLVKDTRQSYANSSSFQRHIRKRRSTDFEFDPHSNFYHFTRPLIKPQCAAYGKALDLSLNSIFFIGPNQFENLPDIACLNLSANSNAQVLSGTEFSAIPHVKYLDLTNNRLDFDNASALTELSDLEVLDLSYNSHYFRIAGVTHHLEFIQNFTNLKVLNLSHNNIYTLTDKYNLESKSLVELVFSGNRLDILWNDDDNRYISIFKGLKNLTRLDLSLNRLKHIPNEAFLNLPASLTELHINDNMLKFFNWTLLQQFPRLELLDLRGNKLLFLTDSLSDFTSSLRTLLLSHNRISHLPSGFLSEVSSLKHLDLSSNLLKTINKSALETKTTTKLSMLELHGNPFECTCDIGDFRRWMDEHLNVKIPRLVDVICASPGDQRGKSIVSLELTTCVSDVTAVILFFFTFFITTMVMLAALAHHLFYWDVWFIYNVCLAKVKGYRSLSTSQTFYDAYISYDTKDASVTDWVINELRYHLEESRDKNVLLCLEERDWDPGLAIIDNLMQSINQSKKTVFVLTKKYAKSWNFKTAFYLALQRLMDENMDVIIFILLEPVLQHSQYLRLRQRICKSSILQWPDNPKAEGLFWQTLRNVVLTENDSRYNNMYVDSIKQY
Experimental: as §1, §2, §3

[3] = system: Human peripheral blood mononuclear cells (PBMC); assay: Cytokine induction in human cells (PBMC), Ella Simple Plex ELISA; assay type: cell-based; details: 21-24 hours, lowest concentration giving cytokine at least 2x negative control, tested 0.01-30 micromolar
Experimental: Whole blood was obtained from healthy human donors and collected by venipuncture into vacutainer tubes or syringes containing EDTA. Human peripheral blood mononuclear cells (PBMC) were purified from the whole blood by density gradient centrifugation. Histopaque 1077 (15 mL, Sigma, St. Louis, MO) was transferred to 6×50 mL sterile polypropylene conical tubes. The Histopaque was overlayed with 15-25 mL of blood diluted 1:2 in Hank's Balanced Salts Solution (HBSS) (Gibco, Life Technologies, Grand Island, NY). The tubes were then centrifuged at 1370 rpm for 30 minutes at 20° C., with no brake (400×g, GH 3.8 A Rotor).
The interface (buffy coat) containing the PBMC was collected and placed in a new sterile 50 mL conical polypropylene centrifuge tube. The PBMC were mixed with an equal volume of HBSS (about 20 mL from the interface and about 20 mL of HBSS), and then centrifuged at 1090 rpm, 10 minutes, 20° C., with brake (270×g, GH 3.8 A Rotor). After completing centrifugation, the cells were resuspended in 2-3 mL ACK Red blood cell lysis buffer (ammonium chloride potassium solution, Gibco, Life Technologies) and incubated for 2-5 minutes at 20° C. Next, HBSS (40 mL) was added to the cells, and the sample was centrifuged at 270×g for 10 minutes at 20° C. The supernatant was decanted, and the cell pellet was resuspended in 5 mL AIM V Medium (Gibco, Life Technologies). Cell aggregates and debris were removed by filtering the cell solution through a BD Falcon 70 micron nylon cell strainer (BD Biosciences, San Jose, CA).
The number of viable cells was determined by counting with a Moxi Z instrument (ORFLO Technologies, Ketchum, ID) or by using a hemacytometer. For determining cell viability with a hemacytometer, the cells were diluted 1/10 in 0.4% trypan blue and HBSS (specifically, 50 microliter of trypan blue+40 microliter of HBSS+10 microliter of cell solution were added to a microfuge tube and mixed). Ten microliters of the diluted cells were then applied to the hemacytometer, and the number of viable PBMC were determined by microscopy.
The PBMC sample was then resuspended in 96-well plates at a concentration of 8×10^5 cells/well in 0.1 mL of AIM-V medium. Each compound was solubilized in dimethyl sulfoxide (DMSO) to create a 3 mM stock solution. The stock solution was then further diluted with AIM-V medium to prepare the serial dilutions. The diluted compound (100 microliters) was then transferred to the PBMCs to produce testing sets with final compound concentrations of 30, 10, 3.3, 1.1, 0.37, 0.12, 0.04, 0.01 micromolar. The plates also had both positive and negative controls. The negative control wells contained only AIM-V medium with no example compound. The positive control wells contained a control set of imiquimod serially diluted to concentrations of 30, 10, 3.3, 1.1, 0.37, 0.12, 0.04, 0.01 micromolar. The concentrations used in the control set were selected to match the concentrations used in the testing set. The plates were then cultured at 37° C./5% CO2 for 21-24 hours. Cell-free supernatants were harvested by centrifuging the 96-well plates at 2100 rpm, 23° C. for 10 minutes. Approximately 160 microliters of the supernatant was then stored in a NUNC 96-well plate, covered with the compression cap and stored at −80° C. until the cytokine analysis was done.
Cytokine levels (human IFN-alpha multisubtype, human IFN-gamma, and human TNF-alpha) were measured in picograms/mL by Ella Simple Plex ELISA (ProteinSimple, San Jose, CA) according to the manufacturer's instructions.
Specifically, the minimum effective concentration of each compound (micromolar) was determined as the lowest concentration of the compound that induced a measured cytokine response at a level ([…]) that was at least 2× greater than that observed with the negative control wells.

[4] = system: LHRH receptor expressing tumor cells; details: free Dox relative to LHRH-conjugated Dox; cited from earlier work

SMILES	MEC to Produce TLR Activation, TLR 7 [1]	MEC to Produce TLR Activation, TLR 8 [2]	MEC to Induce Cytokine IFN-alpha [3]	MEC to Induce Cytokine IFN-gamma [3]	MEC to Induce Cytokine TNF-alpha [3]	amount of free Dox required for antitumor activity equal to the LHRH conjugate [4]
CCOC[C@H](Cc1ccc(OCc2cn(Cc3ccccc3)nn2)cc1)n1cnc2c(N)nc3ccccc3c21 [Example 2, (S)-1-(1-(4-((1-benzyl-1H-1,2,3-triazol-4-yl)methoxy)phenyl)-3-ethoxypropan-2-yl)-1H-imidazo[4,5-c]quinolin-4-amine]	≤0.01 µM	3.3 µM	≤0.01 µM	≤0.01 µM	≤0.01 µM	–
C#CCOc1ccc(C[C@@H](COCC)n2cnc3c(N)nc4ccccc4c32)cc1 [Example 1, (S)-1-(1-ethoxy-3-(4-(prop-2-yn-1-yloxy)phenyl)propan-2-yl)-1H-imidazo[4,5-c]quinolin-4-amine]	≤0.01 µM	10 µM	≤0.01 µM	≤0.01 µM	≤0.01 µM	–
C[C@@H]1C[C@H]2[C@@H]3CCC4=CC(=O)C=C[C@]4(C)C3=CC[C@]2(C)[C@H]1C(=O)CN1CCN(c2cc(N3CCCC3)nc(N3CCCC3)n2)CC1 [Dox]	–	–	–	–	–	approximately 200 times
